Here are results for five molecules from patent publication US20240209028A1, “CNP COMPOUNDS” (priority 2022, published 2024).

Each structure is given as a SMILES string. In brackets after ≈: the same amount, converted by molar mass. Starred links: 1 amine or outer side, 2 acyl side, 3 side chain; linkers in the order of their positions; H or OH if unused. Positions of bridges follow the written chain, without caps; N, C: chain ends. Residues, ends and D or L forms follow the SMILES beside them. *: point of attachment. C18 diacid = O=C(O)CCCCCCCCCCCCCCCCC(=O)*; γGlu = O=C(O)[C@H](CCC(=O)[*:2])N[*:1]; AEEA = NCCOCCOCC(=O)O

Data set [1] can be described thus: Solubility of CNP compounds at pH 4.0 and pH 6.5. As to conditions: 8 mM sodium phosphate, 23 mg/mL glycerol, pH 6.5, room temperature; read-out: Solubility at pH 6.5. The format is physicochemical. On the procedure:
In order to assess the suitability of CNP compounds for a soluble liquid formulation, the solubility of CNP compounds in pharmaceutically relevant buffers were measured. Solubility at two different pH-levels (pH 4.0 and pH 6.5) was examined as pH is expected to affect solubility.
Preparation of pH 4.0 samples: The pH 4.0 samples of the CNP compounds were prepared by mixing freeze dried peptide with a pH 4.0 5 mM sodium acetate, 250 mM glycerol buffer at room temperature to a nominal concentration of at least 4000-5000 nmol/mL. The pH of the samples was measured and adjusted to pH 4.0 and the samples were allowed to equilibrate at room temperature until next day if not fully dissolved.
Preparation of pH 6.5 samples: The pH 6.5 samples of the CNP compounds were prepared by dissolving the freeze dried peptide in water. While stirring, a part of the peptide solution was transferred to a buffer consisting of 41 mM sodium phosphate and 118 mg/mL glycerol, pH 7.5-8.0, followed by addition of diluted sodium hydroxide followed by another part of the peptide solution and further addition of diluted sodium hydroxide. This procedure was repeated until all of the peptide solution had been added where a nominal concentration of at least 4000-5000 nmol/mL had been reached and the buffer composition was 8 mM sodium phosphate, 23 mg/mL glycerol. The pH of the samples were measured and adjusted to pH 6.5 and the samples were allowed to equilibrate at room temperature until next day if not fully dissolved.
Procedure: Samples at pH 4.0 were prepared as described above and the compound concentration in the supernatant was determined using CAD (Method F, CAD02).
Samples at pH 6.5 were prepared as described above and peptide concentration in the supernatant was determined by CAD (Method F, CAD02).

Data set [2] in a line: PK of CNP compounds after i.v. and s.c. administration to rats. The note with it: male, Sprague Dawley, in vivo, iv, rat, i.v., about 100 nmol/kg. On the procedure: In order to assess the i.v. and s.c. PK/PD profile of CNP compounds of the present invention, formulations of CNP compounds were administered to rats, blood samples taken and exposure and cGMP response measured.
Quantitative plasma analysis of CNP-compounds: Plasma concentrations of CNP compounds were assayed by plasma protein precipitation and analysed by turboflow liquid chromatography mass spectrometry (TF-LC-MS). Calibrators were prepared by spiking either blank rat or minipig plasma with the relevant CNP compound in the range from 0.5 to 2000 nM. Calibrators, plasma blanks or study samples were prepared for TF-LC-MS by protein precipitation by adding three or four volumes of either ethanol or methanol containing 20 nM of internal standard to one volume of sample. For some compounds, formic acid was added to the precipitation reagent (the final concentration was 1% v/v). After the addition of the precipitation reagent, the mixture was centrifuged at 6200 rpm at 4° C. for 30 minutes. After centrifugation, one volume of supernatant was mixed with two volumes of water (with 1% v/v formic acid). The mixture was analysed by TF-LC-MS using a Cyclone turboflow column (0.5×50 mm, ThermoFisher Scientific) and either a XBridge Protein BEH C4 3.5 μm 300 Åor a XBridge Protein BEH C18 3.5 μm 130 Åanalytical column (both were 50×2.1 mm and obtained from Waters). […] The mass spectrometer was operated in positive ionisation mode. A TSQ Altis mass spectrometer (ThermoFisher Scientific) was used as detector in selected reaction monitoring mode (specific transition were optimised for each CNP compound). Linear calibration curves (weighed 1/×2) were used for calculating the concentration in the plasma samples. Quality control samples were included. The deviation between nominal and calculated concentration in the calibrators and quality control samples were below 15%.
Animals and dosing: Groups of 4-6 rats (male, Sprague Dawley, 350 g at arrival, Janvier, France) per compound and route of administration were dosed with a CNP compound formulated either in A) 8 mM sodium phosphate, 250 mM glycerol, 0.007% polysorbate 20, pH 7.4 or B) 5 mM sodium acetate, 250 mM glycerol, 0.007% polysorbate 20, pH 4.0 depending on the respective compound. S.c. dose was 300 nmol/kg, at a concentration of […] resulting in a dosing volume of 0.3 mL/kg, whereas i.v. dose was 100 nmol/kg, at a concentration of […] resulting in a dosing volume of 1 mL/kg.
Sampling: Sublingual blood samples of 250 uL were collected from unanaesthetised rats in EDTA-coated vials (Microvette 600K3E ref #15.1673.100 Sarstedt) at baseline (-1 h before dosing) as well as 5 min (only i.v. dosed groups), 2 h, 6 h, 24 h, 48 h and 72 h (only for exposure analysis) post-dosing. The blood samples were quickly stored on ice and centrifuged (4° C., 8000 RPM, 5 min) within 10 min of collection. Plasma samples of 50 μL were transferred to each micronic tube for either exposure or cGMP analysis, kept on dry ice and stored in a freezer (−20° C.). Rats had access to food (Altromin) and tap water ad libitum.
Analysis: PK parameters were calculated by non-compartment analysis (NCA) using software Phoenix WinNonlin (ver. 8.1 or later, Certara) for each animal. Clearance (Cl) was calculated as: Dose/AUCinf (linear up, log down). […] Bioavailability was calculated as dose normalized AUC's: (AUC(sc)/Dose(sc))/(AUC(iv)/Dose(iv)). Values in the table are means from individual animals (n=4-6 individual animals). The subsequent plots for cGMP plasma concentration versus time are (Y-axis) mean cGMP concentration (n=4-6 individual animals) after IV dosing and (X-axis) nominal plasma sampling time.
Plasma cGMP are reported as the mean.

The solubility is the dissolved amount per volume that the medium holds. Consider `CC[C@H](C)[C@@H]1NC(=O)[C@H](CCCNC(=N)N)NC(=O)[C@H](CC(=O)O)NC(=O)[C@H](CC(C)C)NC(=O)[C@@H]2CCCN2C(=O)[C@H](CC(C)C)NC(=O)CNC(=O)[C@H](Cc2ccccc2)NC(=O)[C@@H](NC(=O)CNC(=O)[C@H](CO)NC(=O)[C@H](CO)NC(=O)[C@@H](NC(=O)CNC(=O)[C@@H](NC(=O)[C@H](CCCCN)NC(=O)[C@H](CCC(N)=O)NC(=O)[C@H](C)NC(=O)CNC(=O)[C@H](Cc2c[nH]cn2)NC(=O)[C@H](Cc2ccc(O)cc2)NC(=O)COCCOCCNC(=O)COCCOCCNC(=O)CC[C@H](NC(=O)CCCCCCCCCCCCCCCCC(=O)O)C(=O)O)[C@@H](C)O)C(C)C)CSSC[C@@H](C(=O)O)NC(=O)CNC(=O)[C@H](CC(C)C)NC(=O)CNC(=O)[C@H](CO)NC(=O)[C@H](CC(C)C)NC(=O)[C@H](CO)NC(=O)CNC1=O` [compound 1303] ({C18 diacid-γGlu-AEEA-AEEA}-YHGAQKTGVSSGCFGLPLDRIGSLSGLGC-OH; disulfide 13-29), for which, in data set [1], the solubility came out at 4.84 mM (≈ 17.4 mg/mL). Same read-out and setting: to `CC[C@H](C)[C@@H]1NC(=O)[C@H](CCCNC(=N)N)NC(=O)[C@H](CC(=O)O)NC(=O)[C@H](CC(C)C)NC(=O)[C@@H]2CCCN2C(=O)[C@H](CC(C)C)NC(=O)CNC(=O)[C@H](Cc2ccccc2)NC(=O)[C@@H](NC(=O)CNC(=O)[C@H](CO)NC(=O)[C@H](CO)NC(=O)[C@H](CC(C)C)NC(=O)CNC(=O)[C@@H](NC(=O)[C@H](Cc2c[nH]cn2)NC(=O)[C@H](CCC(N)=O)NC(=O)[C@H](C)NC(=O)CNC(=O)[C@H](Cc2c[nH]cn2)NC(=O)[C@H](Cc2ccc(O)cc2)NC(=O)COCCOCCNC(=O)COCCOCCNC(=O)CC[C@H](NC(=O)CCCCCCCCCCCCCCCCC(=O)O)C(=O)O)[C@@H](C)O)CSSC[C@@H](C(=O)O)NC(=O)CNC(=O)[C@H](CC(C)C)NC(=O)CNC(=O)[C@H](CO)NC(=O)[C@H](CC(C)C)NC(=O)[C@H](CO)NC(=O)CNC1=O` [compound 1304] ({C18 diacid-γGlu-AEEA-AEEA}-YHGAQHTGLSSGCFGLPLDRIGSLSGLGC-OH; disulfide 13-29) belongs 6.66 mM (≈ 24.1 mg/mL); to `CC[C@H](C)[C@@H]1NC(=O)[C@H](CCCNC(=N)N)NC(=O)[C@H](CC(=O)O)NC(=O)[C@H](CC(C)C)NC(=O)[C@@H]2CCCN2C(=O)[C@H](CC(C)C)NC(=O)CNC(=O)[C@H](Cc2ccccc2)NC(=O)[C@@H](NC(=O)CNC(=O)[C@H](CO)NC(=O)[C@H](CO)NC(=O)[C@H](CC(C)C)NC(=O)CNC(=O)[C@H](CCCCN)NC(=O)[C@H](CCCCN)NC(=O)[C@H](CCC(N)=O)NC(=O)[C@H](C)NC(=O)CNC(=O)[C@H](Cc2c[nH]cn2)NC(=O)[C@H](CCC(=O)O)NC(=O)COCCOCCNC(=O)COCCOCCNC(=O)CC[C@H](NC(=O)CCCCCCCCCCCCCCCCC(=O)O)C(=O)O)CSSC[C@@H](C(=O)O)NC(=O)CNC(=O)[C@H](CC(C)C)NC(=O)CNC(=O)[C@H](CO)NC(=O)[C@H](CC(C)C)NC(=O)[C@H](CO)NC(=O)CNC1=O` [compound 1310] ({C18 diacid-γGlu-AEEA-AEEA}-EHGAQKKGLSSGCFGLPLDRIGSLSGLGC-OH; disulfide 13-29), 7.61 mM (≈ 27.4 mg/mL). For the molecule `CC[C@H](C)[C@@H]1NC(=O)[C@H](CCCNC(=N)N)NC(=O)[C@H](CC(=O)O)NC(=O)[C@H](CC(C)C)NC(=O)[C@@H]2CCCN2C(=O)[C@H](CC(C)C)NC(=O)CNC(=O)[C@H](Cc2ccccc2)NC(=O)[C@@H](NC(=O)CNC(=O)[C@H](CO)NC(=O)[C@H](CO)NC(=O)[C@H](CC(C)C)NC(=O)CNC(=O)[C@H](CCCCN)NC(=O)[C@H](CCCCN)NC(=O)[C@H](CCC(N)=O)NC(=O)[C@H](C)NC(=O)CNC(=O)[C@H](CCCCN)NC(=O)[C@H](Cc2ccc(O)cc2)NC(=O)COCCOCCNC(=O)COCCOCCNC(=O)COCCOCCNC(=O)CC[C@H](NC(=O)CC[C@H](NC(=O)CCCCCCCCCCCCCCCCC(=O)O)C(=O)O)C(=O)O)CSSC[C@@H](C(=O)O)NC(=O)CNC(=O)[C@H](CC(C)C)NC(=O)CNC(=O)[C@H](CO)NC(=O)[C@H](CC(C)C)NC(=O)[C@H](CO)NC(=O)CNC1=O` [compound 1356] ({C18 diacid-γGlu-γGlu-AEEA-AEEA-AEEA}-YKGAQKKGLSSGCFGLPLDRIGSLSGLGC-OH; disulfide 13-29; C-terminus assumed), the clearance in data set [2] (read-out: Cl (L/hr/kg), i.v. administration (converted)) is 0.0141 L/h/kg. For the same molecule, the half-life in data set [2] (read-out: T½ (hr), i.v. administration (converted)) is 3.47 h. `CC[C@H](C)[C@@H]1NC(=O)[C@H](CCCNC(=N)N)NC(=O)[C@H](CC(=O)O)NC(=O)[C@H](CC(C)C)NC(=O)[C@@H]2CCCN2C(=O)[C@H](CC(C)C)NC(=O)CNC(=O)[C@H](Cc2ccccc2)NC(=O)[C@@H](NC(=O)CNC(=O)[C@H](CCC(N)=O)NC(=O)[C@H](CO)NC(=O)[C@H](CC(C)C)NC(=O)CNC(=O)[C@H](CCCCN)NC(=O)[C@H](CCCCN)NC(=O)[C@H](CCC(N)=O)NC(=O)[C@H](C)NC(=O)CNC(=O)[C@H](CCCCN)NC(=O)[C@H](Cc2ccc(O)cc2)NC(=O)[C@H](CCCCN)NC(=O)[C@H](Cc2c[nH]cn2)NC(=O)[C@H](C)NC(=O)[C@H](CCC(N)=O)NC(=O)[C@@H]2CCCN2C(=O)[C@H](Cc2c[nH]cn2)NC(=O)[C@H](CCC(=O)O)NC(=O)[C@H](CCC(N)=O)NC(=O)COCCOCCNC(=O)COCCOCCNC(=O)CC[C@H](NC(=O)CC[C@H](NC(=O)CC[C@H](NC(=O)CCCCCCCCCCCCCCCCC(=O)O)C(=O)O)C(=O)O)C(=O)O)CSSC[C@@H](C(=O)O)NC(=O)CNC(=O)[C@H](CC(C)C)NC(=O)CNC(=O)[C@H](CO)NC(=O)[C@H](CC(C)C)NC(=O)[C@H](CO)NC(=O)CNC1=O` [compound 1382] ({C18 diacid-γGlu-γGlu-γGlu-AEEA-AEEA}-QEHPQAHKYKGAQKKGLSQGCFGLPLDRIGSLSGLGC-OH; disulfide 21-37): the solubility in data set [1] stood at 3.18 mM (≈ 15.5 mg/mL).
